Reference: patent publication US10259798B2, “High-purity magnesium lithospermate B and preparation method therefor” (priority 2014, dated 2019)
“Also recorded” adds a separate entry of the source. Like-named read-outs stand apart in the source and are kept apart here. Marks after values point to notes of the source that are not given here.

How the values were obtained:
[1] = test system: lipid oxidation in rat liver microsome; assay: In vitro anti-lipid peroxidation experiment (MDA, TBA method); assay type: biochemical, SD rat; settings: 100 μM, 37° C. 90 mins
Excerpt: Sample and control: magnesium lithospermate B (prepared according to Example 6 of the present application), lithospermic acid B (lab-made; lot number: 20131017), formulated with normal saline prior to use; normal saline as solvent control was from Jiangsu Yabang Pharmaceutical Co., Ltd.; the other reagents were all commercially available analytically pure products. Tris base, potassium chloride, dipotassium phosphate, glycerol, etc. (Sinopharm Chemical Reagent Co., Ltd.); Coomassie brilliant blue G-250, bovine serum albumin (Shanghai Lanji Technology Development Co., Ltd.).
Experimental animal: species and strain: SD rat; source: Shanghai SLAC Laboratory Animal Co., Ltd., Laboratory Animal Production License: SCXK (Shanghai) 2012-0002; number and gender: 2, male; animal weight: 200-250 g.
Steps for preparing liver microsome: liver tissue was taken out, cut into pieces, washed with Buffer A, wiped up, and weighed for 8 g. By adding 10 ml Buffer A per gram of tissue, 80 ml was added in total, followed by automatic homogenization and further homogenization with manual homogenizer. The homogenate was centrifuged at 10,000 g and 4° C. for 30 mins, and the supernatant was taken out. The supernatant was centrifuged at 105,000 g and 4° C. for 60 mins. The resulting precipitate is the microsome, which was then added with Buffer B to obtain microsome suspension, aliquoted into 2 ml small tubes, and stored in −70° C. refrigerator for further use. Determination of protein content: using Bradford method (Coomassie brilliant blue G-250 method).
Determination of lipid oxidation in rat liver microsome: 1 ml liver microsome was added into each tube, followed by addition of different concentrations of reagent solutions. The mixtures were well shaken and incubated in 37° C. water bath for 90 mins. After the tubes were taken out, 1 ml 10% trichloroacetic acid (TCA) and 1 ml 0.67% thiobarbituric acid (TBA) were added into each tube. The tubes were placed in boiling water bath for 15 mins, then cooled with running water and centrifuged at 3000 rpm for 10 mins. The supernatants were taken for colorimetric determination at 532 nm. The contents were calculated with standard tetraethoxypropane and represented with content per mg protein.
Calculation formula: MDA content (nmol/mg prot)={[(Asample−Ablank)÷(Astandard−Ablank)]×10 nmol/ml}÷protein content Inhibition rate %=(MDAblank−MDAsample)/MDAblank×100%

[2] = test system: cardiac myoblast cell H9C2; assay type: cell-based
Excerpt: (§1) Sample and control: magnesium lithospermate B (prepared according to Example 6 of the present application), lithospermic acid B (lab made; lot number: 20131017), formulated with normal saline prior to use; normal saline as solvent control was derived from Jiangsu Yabang Pharmaceutical Co., Ltd.; the other reagents were all commercially available analytically pure products. Cell lines and reagents: cardiac myoblast (H9C2); Microvascular Endothelial Cell (HMEC-1); Lactic Dehydrogenase Cytotoxicity Detection Kit, Beyotime Biotechnology Institute. Dosage setting: the dosages of lithospermic acid B and magnesium lithospermate B were set at 10, 50, 100, 200, 400, 800, 1200, 1600 μM and the incubation time was set as 24 hours in the present experiment. Experimental method: H9C2 cells and HMEC-1 cells were respectively incubated in 10% FBS containing low saccharide DMEM medium and MCDB-131 medium, at 37° C. and 5% CO2. Cells were seeded in a 96-well culture plate, which was added with different concentrations of lithospermic acid B solutions and magnesium lithospermate B solutions on the next day (about 80% fusion). After incubation for 24 hours in total, the detection was conducted according to instructions of the Lactic Dehydrogenase Cytotoxicity Detection Kit. Observation indicator and observation time: the observation indicator is the level of lactic dehydrogenase in cells; cell survival rate was represented by intracellular LDH content ratio, i.e. (absorbance of treated sample well−absorbance of sample control well)/(absorbance of cells with maximum enzymatic activity−absorbance of sample control well)×100. Statistical method: the data was presented with average±standard derivation (mean±SD); the comparison of two groups of data was statistically analyzed by student-t test method, P<0.05 indicating statistical difference.

[3] = test system: endothelial cell HMEC-1; assay type: cell-based
Excerpt: as §1

[4] = assay type: physicochemical; settings: for 0 h peak area / 2 h peak area / 4 h peak area / 6 h peak area / 8 h peak area / 12 h peak area / 24 h peak area: HPLC 288 nm; for 0 h peak area: 1 mg/mL aqueous solution at 25° C. diluted 10 times, MLB of Example 1; for 2 h peak area / 4 h peak area / 6 h peak area / 8 h peak area / 12 h peak area / 24 h peak area: aqueous solution; for Average peak area: average over 0-24 h
Procedure: The chemical stability of magnesium lithospermate B was investigated by detecting the variation of peak areas (HPLC). Specific experimental method: lithospermic acid B (lab-made; lot number: 20131017) and magnesium lithospermate B prepared in Example 1 of the present invention were respectively formulated to 1 mg/mL aqueous solution at 25° C., which was then diluted 10 times. The variation of peak areas of lithospermic acid B at 288 nm for durations of 0, 2, 4, 6, 8, 12, and 24 hours were detected by HPLC, respectively. 10 microliters was injected for each time.

[5] = test system: bleeding of severed tails of rats; assay: Bleeding time of severed tails of rats; assay type: in vivo, SD rat; settings: for Bleeding time: injection through femoral vein, tail severed 2 mins after administration, cut-off 1800 seconds
Excerpt: Sample and control: lithospermic acid B, dipotassium lithospermate B, depside salts of Salvia miltiorrhiza (comprising 85% magnesium lithospermate B), magnesium lithospermate B, formulated with normal saline prior to use; normal saline as solvent control was from Jiangsu Yabang Pharmaceutical Co., Ltd.; the other reagents were all commercially available analytically pure products. Experimental animal: species and strain: SD rat; source: Shanghai SLAC Laboratory Animal Co., Ltd., Laboratory Animal Production License: SCXK (Shanghai) 2012-0002; number and gender: 50, male; animal weight: 120-200 g. Dosage setting: the dosages of lithospermic acid type reagents were set as 50 and 100 mg/kg in the present experiment; normal saline was given as additional solvent control. Tail severing time was 2 mins after administration. Administration route and administration dosage of sample and control: administration by injection through femoral vein, 2 ml/kg. Experimental method: the animals were water fasted overnight. 50 mg/kg pentobarbital sodium was intraperitoneally injected for anesthesia prior to the experiment. After anesthesia of the animals, markers were made at 4 mm from tips of rat tails with a marker pen and ruler. Drugs were injected through femoral veins of the animals. 2 mins later, the tails were swiftly severed at marked positions of the animal tails with a scalpel. The remained animal tails were rapidly inserted into prepared normal saline tubes in 37° C. water bath, and timing was started. The bleeding of the animal tails was observed. If no more bleeding was observed within 30 seconds, the time was recorded as coagulation time (unit: second) of the animals. […] Observation indicator and observation time: the indicator was the bleeding time. Statistical method: the experimental data was represented with x±SD; GraphPad Prism 5 1 way ANOVA was applied for significance test.

| 0 h peak area [4] | 2 h peak area [4] | 4 h peak area [4] | 6 h peak area [4] | 8 h peak area [4] | 12 h peak area [4] | 24 h peak area [4] | Average peak area [4] | SMILES | Inhibition rate (anti-lipid peroxidation, MDA) ([1]; n = 3) | Toxic effect at high dosages, in words [2] | Toxic effect at high dosages, in words [3] | Bleeding time ([5]; 50 mg/kg) | Bleeding time ([5]; 100 mg/kg) | further results |
| --- | --- | --- | --- | --- | --- | --- | --- | --- | --- | --- | --- | --- | --- | --- |
| 3611 | 3632 | 3614 | 3636 | 3629 | 3628 | 3599 | 3621.3 | O=C(/C=C/c1ccc(O)c2c1[C@H](C(=O)OC(Cc1ccc(O)c(O)c1)C(=O)[O-])C(c1ccc(O)c(O)c1)O2)O[C@H](Cc1ccc(O)c(O)c1)C(=O)[O-].[Mg+2] (stereo partly shown) [Magnesium lithospermate B, magnesium lithospermate B] | 84.41% | toxic effect | toxic effect | 1098 ± 84 s | 1800 ± 0 s | Inhibition rate (anti-lipid peroxidation, MDA) ([1]; n = 3, listed as magnesium lithospermate B): around 85%; Concentrations that significantly decreased the intracellular LDH content as compared with normal control wells ([2]; rat, 24 h): 800, 1200, 1600 μM; Intracellular LDH content percent, H9C2 cell ([2]; rat, 24 h, 10 μM): 101.42 ± 2.00%; Intracellular LDH content percent, H9C2 cell ([2]; rat, 24 h, 50 μM): 99.97 ± 1.43%; Intracellular LDH content percent, H9C2 cell ([2]; rat, 24 h, 100 μM): 101.25 ± 2.79%; Intracellular LDH content percent, H9C2 cell ([2]; rat, 24 h, 200 μM): 102.39 ± 1.37%; Intracellular LDH content percent, H9C2 cell ([2]; rat, 24 h, 400 μM): 102.75 ± 3.07%; Intracellular LDH content percent, H9C2 cell ([2]; rat, 24 h, 800 μM): 37.72 ± 7.52 %; Intracellular LDH content percent, H9C2 cell ([2]; rat, 24 h, 1200 μM): 21.59 ± 2.86 %; Intracellular LDH content percent, H9C2 cell ([2]; rat, 24 h, 1600 μM): 14.59 ± 3.05 %; Concentrations that significantly decreased the intracellular LDH content as compared with normal control wells ([3]; human, 24 h): 1200 and 1600 μM; Intracellular LDH content percent, HMEC-1 cell ([3]; human, 24 h, 10 μM): 99.70 ± 3.88%; Intracellular LDH content percent, HMEC-1 cell ([3]; human, 24 h, 50 μM): 101.05 ± 4.77%; Intracellular LDH content percent, HMEC-1 cell ([3]; human, 24 h, 100 μM): 100.96 ± 4.01%; Intracellular LDH content percent, HMEC-1 cell ([3]; human, 24 h, 200 μM): 98.58 ± 0.24%; Intracellular LDH content percent, HMEC-1 cell ([3]; human, 24 h, 400 μM): 97.8 ± 1.03%; Intracellular LDH content percent, HMEC-1 cell ([3]; human, 24 h, 800 μM): 96.93 ± 1.37%; Intracellular LDH content percent, HMEC-1 cell ([3]; human, 24 h, 1200 μM): 96.17 ± 1.00 %; Intracellular LDH content percent, HMEC-1 cell ([3]; human, 24 h, 1600 μM): 84.28 ± 3.28 %; Bleeding time / activity compared with the other test substances, in words ([5]; same dosage, intravenous injection): remarkably longer than lithospermic acid B administration group; also recorded: significantly longer than dipotassium lithospermate B and depside salts of Salvia miltiorrhiza; also recorded: activity superior to the free acid (lithospermic acid B), other salts (dipotassium lithospermate B), and low purity mixtures (salvianolates of Salvia miltiorrhiza); also recorded: better activities than free acid (lithospermic acid B), other salt (dipotassium lithospermate B), and low purity mixture (depside salts of Salvia miltiorrhiza) |
| – | – | – | – | – | – | – | – | O=C(C=Cc1ccc(O)c2c1C(C(=O)OC(Cc1ccc(O)c(O)c1)C(=O)[O-])C(c1ccc(O)c(O)c1)O2)OC(Cc1ccc(O)c(O)c1)C(=O)[O-].[K+].[K+] (stereo not shown) [Dipotassium lithospermate B, dipotassium lithospermate B, reference compound] | – | – | – | 827 ± 70**^$$ second | 1301 ± 189**^$$ second | – |
| 3957 | 3991 | 3992 | 3983 | 4002 | 3990 | 4000 | 3987.8 | O=C(/C=C/c1ccc(O)c2c1[C@H](C(=O)O[C@H](Cc1ccc(O)c(O)c1)C(=O)O)[C@@H](c1ccc(O)c(O)c1)O2)O[C@H](Cc1ccc(O)c(O)c1)C(=O)O [Lithospermic acid B, lithospermic acid B, reference compound] | 86.42% | toxic effect | toxic effect | 869 ± 71 s | 1078 ± 137 s | Inhibition rate (anti-lipid peroxidation, MDA) ([1]; n = 3, listed as lithospermic acid B): around 85% |
